Source: patent US9556165B2 (priority 2012, dated 2017)
Values after ≈ are worked out from the molar mass of the structure shown. Read-outs that look alike come from different tables or passages of the source.

Legend:
Assay type in all cases: cell-based
S. pneumoniae 113 = assay: MIC determination, broth microdilution (CLSI); conditions: Streptococcus pneumoniae, 113, strain 13; broth microdilution; read-out: MIC strain 13 (S. pneumoniae 113)
[1] = test system: P. aeruginosa 2297-con (AmpC derepressed); assay: MIC determination, broth microdilution (CLSI); conditions: Pseudomonas aeruginosa, read-out: strain 8 MIC, strain 8
E. coli J62 = assay: MIC determination, broth microdilution (CLSI); conditions: Escherichia coli, J62, strain 17; broth microdilution; read-out: MIC strain 17 (E. coli J62)
Bacteria = assay: MIC determination in combination with β-lactamase inhibitors (constant 4 μg/mL)
K. pneumoniae 60 = assay: MIC determination, broth microdilution (CLSI); conditions: Klebsiella pneumoniae, 60, strain 2
E. coli J62-TEM-3 = assay: MIC determination, broth microdilution (CLSI); conditions: Escherichia coli, J62TEM3, read-out: MIC strain 18 (E. coli J62-TEM-3), strain 18; broth microdilution
E. coli ATCC25922 = assay: MIC determination, broth microdilution (CLSI); conditions: for MIC: Escherichia coli, ATCC25922, strain 1
[2] = test system: P. aeruginosa 2297 (AmpC wt); assay: MIC determination, broth microdilution (CLSI); conditions: Pseudomonas aeruginosa, strain 7
H. influenzae ATCC 49247 = assay: MIC determination, broth microdilution (CLSI); conditions: Haemophilus influenzae, ATCC49247, strain 12; broth microdilution; read-out: MIC strain 12 (H. influenzae ATCC 49247)
S. aureus 133 = assay: MIC determination, broth microdilution (CLSI)
P. aeruginosa PAO1 = assay: MIC determination, broth microdilution (CLSI); conditions: Pseudomonas aeruginosa, PAO1, strain 6
B. fragilis 6688 = assay: MIC determination, broth microdilution (CLSI); conditions: Bacteroides fragilis, 6688, strain 15; broth microdilution; read-out: MIC strain 15 (B. fragilis 6688)
M. morganii 126/3048 = assay: MIC determination, broth microdilution (CLSI); conditions: Morganella morganii, 126/3048, strain 5
C. freundii K21/3034 = assay: MIC determination, broth microdilution (CLSI); conditions: Citrobacter freundii, K21/3034, strain 4
A. baumannii ATCC15308 = assay: MIC determination, broth microdilution (CLSI); conditions: Acinetobacter baumannii, ATCC15308, strain 9
E. cloacae 34654 = assay: MIC determination, broth microdilution (CLSI); conditions: Enterobacter cloacae, 34654, strain 3
C. perfringens DSM756 = assay: microbe, parasite or virus in culture; conditions: Clostridium perfringens, DSM756, read-out: MIC strain 16 (C. perfringens DSM756), strain 16; broth microdilution
S. maltophilia ICB7569 = assay: MIC determination, broth microdilution (CLSI); conditions: Stenotrophomonas maltophilia, ICB7569, strain 10
[3] = Staphylococcus aureus, 133, strain 11, read-out: strain 11 MIC
[4] = Staphylococcus aureus, 133, strain 14, broth microdilution, read-out: MIC strain 14 (S. aureus 133)

| Compound | MIC (S. pneumoniae 113) [µg/mL] | MIC [1] [µg/mL] | MIC (E. coli J62) [µg/mL] | MIC strain 19 (E. coli J62-TEM-3 + 4 μg/mL clavulanic acid) (Bacteria) [µg/mL] | MIC strain 20 (E. coli J62-TEM-3 + 4 μg/mL sulbactam) (Bacteria) [µg/mL] | MIC strain 21 (E. coli J62-TEM-3 + 4 μg/mL tazobactam) (Bacteria) [µg/mL] | MIC (K. pneumoniae 60) [µg/mL] | MIC (E. coli J62-TEM-3) [µg/mL] | MIC (E. coli ATCC25922) [µg/mL] | MIC [2] [µg/mL] | MIC (H. influenzae ATCC 49247) [µg/mL] | MIC (S. aureus 133; [3]) [µg/mL] | MIC (S. aureus 133; [4]) [µg/mL] | MIC (P. aeruginosa PAO1) [µg/mL] | MIC (B. fragilis 6688) [µg/mL] | MIC (M. morganii 126/3048) [µg/mL] | MIC (C. freundii K21/3034) [µg/mL] | MIC (A. baumannii ATCC15308) [µg/mL] | MIC (E. cloacae 34654) [µg/mL] | MIC (C. perfringens DSM756) [µg/mL] | other results |
| --- | --- | --- | --- | --- | --- | --- | --- | --- | --- | --- | --- | --- | --- | --- | --- | --- | --- | --- | --- | --- | --- |
| CC1(C)[C@H](NC(=O)/C(=N\OCCCOc2ccc(C(=N)N)cc2)c2csc(N)n2)C(=O)N1OS(=O)(=O)O [Example 58, (2Z)-2-(2-Amino-1,3-thiazol-4-yl)-2-{[3-(4-carbamimidoylphenoxy)propoxy]imino}-N-[(3S)-2,2-dimethyl-4-oxo-1-(sulfooxy)azetidin-3-yl]ethanamide] | ≤ 0.063 | 16 (≈ 28.8 µM) | 4 (≈ 7.2 µM) | 2 | 2 | 2 | 4 (≈ 7.2 µM) | 32 (≈ 57.6 µM) | 2 (≈ 3.6 µM) | 32 (≈ 57.6 µM) | 0.5 (≈ 0.9 µM) | ≤ 0.063 | 4 (≈ 7.2 µM) | 16 (≈ 28.8 µM) | 4 (≈ 7.2 µM) | 1 (≈ 1.8 µM) | 1 (≈ 1.8 µM) | 16 (≈ 28.8 µM) | 4 (≈ 7.2 µM) | 4 (≈ 7.2 µM) |  |
| CC1(C)[C@H](NC(=O)/C(=N\O[C@@H](COc2ccc(C(=N)NCc3ncc[nH]3)cc2)C(=O)O)c2csc(N)n2)C(=O)N1OS(=O)(=O)O [Example 104, (2S)-2-({[(1Z)-1-(2-Amino-1,3-thiazol-4-yl)-2-{[(3S)-2,2-dimethyl-4-oxo-1-(sulfooxy)azetidin-3-yl]amino}-2-oxoethylidene]amino}oxy)-3-{4-[N-(1H-imidazol-2-ylmeth-yl)carbamimidoyl]phenoxy}propanoic acid] | 1 (≈ 1.5 µM) |  | 1 (≈ 1.5 µM) | 1 | 1 | 1 | 1 (≈ 1.5 µM) | 32 (≈ 48.1 µM) |  |  | ≤ 0.063 | ≤ 0.063 |  | 16 (≈ 24 µM) |  | 0.5 (≈ 0.751 µM) | 1 (≈ 1.5 µM) |  | 1 (≈ 1.5 µM) | 8 (≈ 12 µM) | strain 1 MIC (E. coli ATCC25922; strain 1): 1 µg/mL; MIC (S. maltophilia ICB7569): 16 µg/mL (≈ 24 µM) |
| CC1(C)[C@H](NC(=O)/C(=N\OCCOc2ccc(C(=N)NCC[N+]3(C)CCCC3)cc2)c2csc(N)n2)C(=O)N1OS(=O)(=O)O.O=C([O-])C(F)(F)F [Example 79, 1-(2-{[{4-[2-({[(1Z)-1-(2-Amino-1,3-thiazol-4-yl)-2-{[(3S)-2,2-dimethyl-4-oxo-1-(sulfo-oxy)azetidin-3-yl]amino}-2-oxoethylidene]amino}oxy)ethoxy]phenyl}(imino)-methyl]amino}ethyl)-1-methylpyrrolidinium chloride] | ≤ 0.063 | 4 | 0.5 | 0.5 | 0.5 | 0.5 | 0.5 | 8 | 0.5 | 8 | ≤ 0.063 | ≤ 0.063 | 2 | 8 | 4 | 1 | 0.25 | 0.5 | 0.5 | 2 |  |
| CC1(C)[C@H](NC(=O)/C(=N\OCC(Oc2ccc(C(=N)N)cc2)C(=O)O)c2csc(N)n2)C(=O)N1OS(=O)(=O)O (single isomer, unassigned) [Example 87A] | 0.5 (≈ 0.854 µM) |  | 2 (≈ 3.42 µM) | 1 | 1 | 2 | 1 (≈ 1.71 µM) | 32 (≈ 54.6 µM) | 1 (≈ 1.71 µM) |  | 0.25 (≈ 0.427 µM) | ≤ 0.063 |  | 32 (≈ 54.6 µM) | 32 (≈ 54.6 µM) | 0.25 (≈ 0.427 µM) | 1 (≈ 1.71 µM) | 8 (≈ 13.7 µM) | 1 (≈ 1.71 µM) | 8 (≈ 13.7 µM) |  |
